The record followed here is patent publication US8536210B2, “Compounds for inhibiting semicarbazide-sensitive amine oxidase (SSAO)/vascular adhesion protein-1 (VAP-1) and uses thereof for treatment and prevention of diseases” (Semmelweis Egyetem, priority 2008, dated 2013).

Data set [1] has as its target human recombinant VAP-1 (SSAO/VAP-1 enzyme) (Homo sapiens (Human), UniProt Q16853). In words: In vitro inhibition of SSAO activity on human recombinant VAP-1 (colorimetric, benzylamine substrate). The settings on record: for IC50: recombinant SSAO/VAP-1 in CHO cell homogenate, 1 mM benzyl amine. It counts as biochemical. The protocol: For determining the SSAO/VAP-1 activity, the colorimetric method described by Holt, A (Holt, A., Anal. Biochem. 244, 384, 1997) for monoamine oxidase and analogous enzymes was used. Recombinant SSAO/VAP-1 enzyme was expressed in Chinese Hamster Ovary cells (CHO). These cells and cell cultures have been described earlier (Smith, D. J. et al, J. Exp. Med. 188, 17, 1998). The cell homogenate was prepared as follows: a suspension was made of approximately 3.6×10^8 cells in 25 ml lysation buffer (150 mM NaCl, 10 mM Tris-base pH 7.2, 1.5 mM MgCl2, 1% NP40), that was stirred for 1 night and incubated at 4° C. The homogenate was centrifugated (18000 g). The supernatant was used directly afterwards for the measurement. SSAO/VAP-1 activity measurement was carried out as follows on 96 precisely microtitrated plates, a given amount of inhibitor was added to each. The amount of the inhibitors varied among the measurements, the final concentration being between 1 nM and 50 μM in general, in 20 μl aqueous total volume for all cases. Then 0.2 M potassium phosphate buffer (pH=7.6) was added, to obtain a total volume of 200 μl 50 μl freshly prepared chromogen solution was given, which contains 1 mM of vanillic acid, 500 μM 4-aminoantipyrin, 8 U/ml horse radish peroxidase, and such an amount of SSAO/VAP-1 containing CHO cell homogenate that causes a 0.6 A-490 per h change, the latter being in the linear coherence scope of the method. The plates were incubated for 30 min at 37° C. and the background absorbance was measured at 490 nm by a Wallac Victor II apparatus. For starting the enzyme reaction, 20 μl 10 mM benzyl amine solution was added, the final concentration of which was therefore 1 mM. The plates were reincubated at 37° C. for 1 h. The increase in the absorbance showing the SSAO/VAP-1 activity was measured at 490 nm. The inhibition was calculated in the % of the control absorbance corrected with the background absorbance, IC50 values were calculated using GraphPad Prism.

In data set [2] the test system is acetic acid induced writhing syndrome. Description: Inhibition of acetic acid induced writhing on mice. The settings on record: 20 minutes prior to acetic acid. It counts as in vivo. The protocol: The method described by Van der Wende (Van der Vende C, Margolin S, Fed. Proc., 15, 494, 1956) with the modifications of Witkin et al. (Witkin L B et al, J. Pharm. Exp. Ther., 133, 400, 1961) was applied. 0.2 ml of a 0.6% acetic acid solution was injected intraperitoneally, causing a typical writhing syndrome in 90% of the animals. Compounds of the invention were administered subcutaneously, 20 minutes prior to acetic acid exposure. Antianalgetic effect was determined by the formula, which is shown below, and is expressed in % values. (number of writhings in treatment group (5′)/number of writhings in control group (5′))×100
(Writhing tests count abdominal constrictions after an irritant is injected.)

The subject of data set [3] is carrageenan-induced rat paw edema. Description: Inhibition of carrageenan-induced rat paw edema. It counts as in vivo. From the text:
Carrageenan-induced rat paw edema has been extensively used in the evaluation of anti-inflammatory effects of various agents and it is useful in assessing the efficacy of compounds to alleviate acute inflammation (Whiteley P E, Dalrymple S A (1998) Models of inflammation: carrageenan-induced paw edema in the rat, in Current Protocols in Pharmacology (Enna S J, Williams M, Ferkany J W, Kenakin T, Porsolt R E, Sullivan J P eds) pp 5.4.1-5.4.3, John Wiley & Sons, New York.). Edema in the paws was induced by injecting 0.1 ml of a 1% solution of carrageenan intraplantary. […] […] Inhibitory effects are expressed in % values.
In general terms: The carrageenan paw model is a standard test of acute inflammation.

Chain of human recombinant VAP-1 (SSAO/VAP-1 enzyme) (Q16853 whole entry): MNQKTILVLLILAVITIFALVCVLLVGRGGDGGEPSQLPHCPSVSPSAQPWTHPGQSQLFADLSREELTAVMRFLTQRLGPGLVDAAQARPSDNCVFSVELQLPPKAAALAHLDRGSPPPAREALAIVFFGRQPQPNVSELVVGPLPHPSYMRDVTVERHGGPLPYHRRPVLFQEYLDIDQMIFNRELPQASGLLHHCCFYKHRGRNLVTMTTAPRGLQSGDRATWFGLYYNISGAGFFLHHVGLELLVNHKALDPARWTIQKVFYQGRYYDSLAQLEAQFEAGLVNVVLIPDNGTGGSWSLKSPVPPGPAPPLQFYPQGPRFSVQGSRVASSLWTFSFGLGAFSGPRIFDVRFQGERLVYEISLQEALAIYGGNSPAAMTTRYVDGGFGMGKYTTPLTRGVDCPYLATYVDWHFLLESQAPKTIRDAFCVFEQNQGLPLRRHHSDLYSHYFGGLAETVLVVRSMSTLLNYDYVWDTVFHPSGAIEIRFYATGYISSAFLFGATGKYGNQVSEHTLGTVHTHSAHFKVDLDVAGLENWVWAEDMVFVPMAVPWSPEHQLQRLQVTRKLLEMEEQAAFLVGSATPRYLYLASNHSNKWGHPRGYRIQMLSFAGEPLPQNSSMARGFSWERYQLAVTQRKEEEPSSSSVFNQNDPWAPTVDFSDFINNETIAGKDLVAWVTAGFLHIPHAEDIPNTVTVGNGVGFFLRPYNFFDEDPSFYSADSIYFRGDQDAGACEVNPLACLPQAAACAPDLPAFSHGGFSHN

In general, melting point refers to the temperature, or range, at which the solid turns liquid. In general, IC50 refers to the concentration needed to halve the response being measured. Regarding `COc1cccc(C=NO)c1C` [Compound 1, 3-Methoxy-2-methylbenzaldehyde oxime], the melting point was 110 °C. In data set [1], the 50% inhibitory concentration (IC50) was found to be 102 µM.
One may read the inhibition as the relative decrease from the control value, in per cent. As to `ON=Cc1cccc2cccc(N3CCCC3)c12` [Compound 5, 8-Pyrrolidino-1-naphthaldehyde oxime], in data set [1] (at 50 μM), the inhibition at 50 µM is 32%.
Turning to `ON=Cc1c(O)ccc2c1OCO2` [Compound 6, 5-Hydroxy-1,3-benzodioxole-4-carbaldehyde oxime], the half-inhibitory concentration (IC50) in data set [1] came out at 4.3 µM.
In the case of `CCOc1ccc2c(c1C=NO)OCO2` [Compound 7, 5-Ethoxy-1,3-benzodioxole-4-carbaldehyde oxime], the IC50 in data set [1] stood at 40 µM.
For `C=CCOc1ccc2c(c1C=NO)OCO2` [Compound 8, 5-(Allyloxy)-1,3-benzodioxole-4-carbaldehyde oxime], the IC50 in data set [1] was 95 µM.
Take `ON=Cc1c(Br)ccc2c1OCO2` [Compound 9, 5-Bromo-1,3-benzodioxole-4-carbaldehyde oxime]: the “Inhibition of writhing syndrome in %” value in data set [2] (15 mg/kg s.c.) turned out to be 84 ± 8 %; in data set [2] (30 mg/kg s.c.), 80 ± 7 %. For the same compound, the “Inhibition of rat paw edema in %” value in data set [3] (7.5 mg/kg s.c., 60 min) is reported as 63 ± 7 %; in data set [3] (7.5 mg/kg s.c., 120 min), 62 ± 6 %; in data set [3] (7.5 mg/kg s.c., 180 min), 66 ± 5 %; in data set [3] (15 mg/kg s.c., 60 min), 53 ± 5 %; in data set [3] (15 mg/kg s.c., 120 min), 52 ± 3 %; in data set [3] (15 mg/kg s.c., 180 min), 66 ± 7 %. The “Inhibition of rat paw edema in %” value in data set [3] (30 mg/kg p.o., 60 min) came out at 0%; in data set [3] (30 mg/kg p.o., 120 min), 5 ± 1%; in data set [3] (30 mg/kg p.o., 180 min), 0%; in data set [3] (30 mg/kg s.c., 60 min) it was 54 ± 6 %; in data set [3] (30 mg/kg s.c., 120 min), 40 ± 5 %; in data set [3] (30 mg/kg s.c., 180 min) it was 50 ± 5 %. Further, in data set [1], the IC50 is 14.9 µM.
For the compound `CC1Oc2ccc(Br)c(C=NO)c2O1` (centres unmarked) [Compound 10, 5-Bromo-2-methyl-1,3-benzodioxole-4-carbaldehyde oxime], the inhibition at 500 µM in data set [1] stood at 35%.
On to `ON=Cc1ccccc1-c1ccc2c(c1C=NO)OCO2` [Compound 12, 5-{2-[(hydroxyimino)methyl]phenyl}-1,3-benzodioxole-4-carbaldehyde oxime], for which the half-inhibitory concentration (IC50) in data set [1] amounted to 180 µM.
Consider `CCOc1c(C=NO)c(=O)n(C)c(=O)n1C` [Compound 16, 6-Ethoxy-1,3-dimethyl-2,4-dioxo-1,2,3,4-tetrahydropyrimidine-5-carbaldehyde oxime], for which the results for the “Inhibition of writhing syndrome in %” value in data set [2] (15 mg/kg s.c.) and in data set [2] (30 mg/kg s.c.) were 86 ± 7 % and 96 ± 6 %, respectively. Also, the “Inhibition of rat paw edema in %” value in data set [3] (30 mg/kg s.c., 60 min) is given as 8 ± 1%; in data set [3] (30 mg/kg s.c., 120 min), 19 ± 2%; in data set [3] (30 mg/kg s.c., 180 min), 31 ± 4%.
Turning to `COc1c(C=NO)c(=O)n(C)c(=O)n1C` [Compound 17, 6-Methoxy-1,3-dimethyl-2,4-dioxo-1,2,3,4-tetrahydropyrimidine-5-carbaldehyde oxime], the half-maximal inhibitory concentration (IC50) in data set [1] came out at 30 µM.
Regarding `CCCOc1c(C=NO)c(=O)n(C)c(=O)n1C` [Compound 18, 1,3-Dimethyl-2,4-dioxo-6-propoxy-1,2,3,4-tetrahydropyrimidine-5-carbaldehyde oxime], the IC50 in data set [1] is 18 µM.
On to `CCOc1c(C=NOC)c(=O)n(C)c(=O)n1C` [Compound 19, 6-Ethoxy-1,3-dimethyl-2,4-dioxo-1,2,3,4-tetrahydropyrimidine-5-carbaldehyde O-methyloxime], for which the half-inhibitory concentration (IC50) in data set [1] came to 29 µM.
For `CCCSc1c(C=NO)c(=O)n(C)c(=O)n1C` [Compound 21, 1,3-Dimethyl-2,4-dioxo-6-(propylthio)-1,2,3,4-tetrahydropyrimidine-5-carbaldehyde oxime], in data set [1], the IC50 was 58 µM.
Consider `CSc1c(C=NO)c(=O)n(C)c(=O)n1C` [Compound 22, 1,3-Dimethyl-6-(methylthio)-2,4-dioxo-1,2,3,4-tetrahydropyrimidine-5-carbaldehyde oxime], for which the “Inhibition of writhing syndrome in %” value in data set [2] (5 mg/kg s.c.) is reported as 70 ± 5 %; in data set [2] (15 mg/kg s.c.), 100%. Further, the “Inhibition of rat paw edema in %” value was determined as 15 ± 2% in data set [3] (7.5 mg/kg s.c., 60 min); 55 ± 5 % in data set [3] (7.5 mg/kg s.c., 120 min); 60 ± 5 % in data set [3] (7.5 mg/kg s.c., 180 min); 60 ± 6 % in data set [3] (15 mg/kg s.c., 60 min); 63 ± 7 % in data set [3] (15 mg/kg s.c., 120 min); 65 ± 7 % in data set [3] (15 mg/kg s.c., 180 min). The “Inhibition of rat paw edema in %” value stood at 0% in data set [3] (30 mg/kg p.o., 60 min); 21 ± 2% in data set [3] (30 mg/kg p.o., 120 min); 21 ± 2% in data set [3] (30 mg/kg p.o., 180 min); 58 ± 7 % in data set [3] (30 mg/kg s.c., 60 min); 54 ± 5 % in data set [3] (30 mg/kg s.c., 120 min); 72 ± 8 % in data set [3] (30 mg/kg s.c., 180 min). For the same compound, in data set [1], the half-maximal inhibitory concentration (IC50) was 48 µM.
On to `CCSc1c(C=NO)c(=O)n(C)c(=O)n1C` [Compound 23, 6-(Ethylthio)-1,3-dimethyl-2,4-dioxo-1,2,3,4-tetrahydropyrimidine-5-carbaldehyde oxime], for which the IC50 in data set [1] stood at 111 µM.
As for `Cn1c(Sc2ccccc2)c(C=NO)c(=O)n(C)c1=O` [Compound 24, 1,3-Dimethyl-2,4-dioxo-6-(phenylthio)-1,2,3,4-tetrahydropyrimidine-5-carbaldehyde oxime], the half-inhibitory concentration (IC50) in data set [1] amounted to 106 µM.
The same measure, in the same setting: the same measure for `CCSc1c(C=NOC)c(=O)n(C)c(=O)n1C` [Compound 25, 6-(Ethylthio)-1,3-dimethyl-2,4-dioxo-1,2,3,4-tetrahydropyrimidine-5-carbaldehyde O-methyloxime]: 113 µM.
As for `C=CCN(C)c1c(C=NO)c(=O)n(C)c(=O)n1C` [Compound 27, 6-[Allyl(methyl)amino]-1,3-dimethyl-2,4-dioxo-1,2,3,4-tetrahydropyrimidine-5-carbaldehyde oxime], the half-maximal inhibitory concentration (IC50) in data set [1] stood at 41 µM.
In the case of `Cn1ncc(N2CCCCC2)c(/C=N/O)c1=O` [Compound 29, E-2-Methyl-3-oxo-5-piperidino-2,3-dihydropyridazine-4-carbaldehyde oxime], the IC50 in data set [1] is 240 µM.
In the case of `COc1ccc(Cn2ncc(N3CCOCC3)c(/C=N/O)c2=O)cc1` [Compound 32, E-2-(4-Methoxybenzyl)-5-morpholino-3-oxo-2,3-dihydropyridazine-4-carbaldehyde oxime], the IC50 in data set [1] was found to be 263 µM.
As for `Cn1nc2c(c(C=NO)c1=O)N1CCCC1CO2` (centres unmarked) [Compound 35, 3-Methyl-2-oxo-2,3,6a,7,8,9-hexahydro-6H-pyridazino[3,4-b]pyrrolo[1,2-d][1,4]oxazine-1-carbaldehyde oxime], the inhibition at 500 µM in data set [1] came to 55%.
For the compound `Cn1ncc(N2CCCC2)c(-c2ccccc2C=NO)c1=O` [Compound 38, 2-(2-Methyl-3-oxo-5-pyrrolidino-2,3-dihydropyridazin-4-yl)benzaldehyde oxime], the inhibition at 500 µM in data set [1] was found to be 31%.
For the compound `ON=CCCc1nc(-c2ccccc2)c(-c2ccccc2)o1` [Compound 40, 3-(4,5-Diphenyl-1,3-oxazol-2-yl)propanal oxime], in data set [1], the IC50 is 3.5 µM.
`COc1ccc2c(c1)c(CC(=O)O)c(C)n2C(=O)c1ccc(Cl)cc1` [Indomethacin, reference compound]: the “Inhibition of rat paw edema in %” value in data set [3] (2.5 mg/kg p.o., 60 min) worked out at 32 ± 2 %; in data set [3] (2.5 mg/kg p.o., 120 min), 51 ± 4 %; in data set [3] (2.5 mg/kg p.o., 180 min), 53 ± 5 %.
